In US9096591B2, “Tetracyclic compounds” (Medivation Technologies, Inc., priority 2007, dated 2015):
Read-outs that look alike come from different tables or passages of the source.

What was measured:
[1] = biological target: T1, human recombinant histamine H2 receptor (Homo sapiens, UniProt P25021); assay: Histamine H2 radioligand binding ([125I]Aminopotentidine)
T1 construct: expressed in transfected cells; host or cells: CHO-K1 cells
Method in brief: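 Test compounds were assessed for their ability to displace radioligand from the human recombinant histamine H2 receptor. Non-specific binding was determined in the presence of 3 μM Tiotidine, and results were expressed as percent inhibition of specific binding, with 1% DMSO serving as the vehicle.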

[2] = biological target: T2, human recombinant serotonin (5-Hydroxytryptamine) 5-HT2C receptor (Homo sapiens, UniProt P28335); assay: Serotonin 5-HT2C radioligand binding ([3H]Mesulergine); parameters: Inhibition of ligand binding, Ser. 5-HT2C: concentration or dose not given beside the values; conditions: percent inhibition of specific binding
T2 construct: expressed in transfected cells; host or cells: CHO-K1 cells
T2 sequence (P28335 33-458): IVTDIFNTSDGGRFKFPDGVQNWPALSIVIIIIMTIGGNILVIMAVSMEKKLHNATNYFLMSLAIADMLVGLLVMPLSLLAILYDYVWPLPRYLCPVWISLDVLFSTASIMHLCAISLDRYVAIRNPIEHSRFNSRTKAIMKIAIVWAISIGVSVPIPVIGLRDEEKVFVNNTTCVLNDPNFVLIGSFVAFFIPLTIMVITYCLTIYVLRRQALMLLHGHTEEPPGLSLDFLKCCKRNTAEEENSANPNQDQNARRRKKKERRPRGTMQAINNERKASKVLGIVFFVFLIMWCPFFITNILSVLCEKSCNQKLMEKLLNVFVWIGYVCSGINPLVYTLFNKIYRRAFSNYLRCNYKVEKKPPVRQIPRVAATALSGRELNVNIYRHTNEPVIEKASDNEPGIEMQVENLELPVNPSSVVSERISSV
Method: (§1) Compounds of the invention were incubated with 1 nM [^3H]Mesulergine for 60 minutes at 25° C. Non-specific binding was estimated in the presence of 1 μM Mianserin. Receptor proteins were filtered and washed, the filters were then counted to determine [^3H]Mesulergine specifically bound. […] Biochemical assay results are presented as the percent inhibition of specific binding in Table 6.

[3] = biological target: T3, human recombinant serotonin (5-Hydroxytryptamine) 5-HT6 receptor (Homo sapiens, UniProt P50406); assay: Serotonin 5-HT6 radioligand binding ([3H]LSD); parameters: Inhibition of ligand binding, Ser. 5-HT6: concentration or dose not given beside the values; conditions: percent inhibition of specific binding
T3 construct: expressed in transfected cells; host or cells: human HeLa cells
Excerpt: Receptor proteins were filtered and washed, the filters were then counted to determine [3H]LSD specifically bound. […] Biochemical assay results are presented as the percent inhibition of specific binding in Table 6.

[4] = biological target: T4, human recombinant dopamine D2L receptor (Homo sapiens, UniProt P14416); assay: Dopamine D2L radioligand binding ([3H]Spiperone); conditions: percent inhibition of specific binding
T4 construct: expressed in transfected cells; host or cells: CHO cells
Method: Non-specific binding was estimated in the presence of 10 μM Haloperidol. Receptor proteins were filtered and washed, the filters were then counted to determine [^3H]Spiperone specifically bound. […] Biochemical assay results are presented as the percent inhibition of specific binding in Table 6.

[5] = biological target: T5, human recombinant serotonin (5-Hydroxytryptamine) 5-HT2A receptor (Homo sapiens, UniProt P28223); assay: Serotonin 5-HT2A radioligand binding ([3H]Ketanserin); conditions: percent inhibition of specific binding
T5 construct: expressed in transfected cells; host or cells: CHO-K1 cells
Method: as §1, with “with 0.5” for “with 1”, “nM [^3H]Ketanserin” for “nM [^3H]Mesulergine”, “determine [^3H]Ketanserin” for “determine [^3H]Mesulergine”

[6] = biological target: T6, human recombinant adrenergic α2B receptor (Homo sapiens, UniProt P18089); assay: Adrenergic α2B radioligand binding ([3H]Rauwolscine); parameters: Inhibition of ligand binding, Adren. alpha2B: concentration or dose not given beside the values; conditions: percent inhibition of specific binding
T6 construct: expressed in transfected cells; host or cells: CHO-K1 cells
T6 sequence (P18089 1-450): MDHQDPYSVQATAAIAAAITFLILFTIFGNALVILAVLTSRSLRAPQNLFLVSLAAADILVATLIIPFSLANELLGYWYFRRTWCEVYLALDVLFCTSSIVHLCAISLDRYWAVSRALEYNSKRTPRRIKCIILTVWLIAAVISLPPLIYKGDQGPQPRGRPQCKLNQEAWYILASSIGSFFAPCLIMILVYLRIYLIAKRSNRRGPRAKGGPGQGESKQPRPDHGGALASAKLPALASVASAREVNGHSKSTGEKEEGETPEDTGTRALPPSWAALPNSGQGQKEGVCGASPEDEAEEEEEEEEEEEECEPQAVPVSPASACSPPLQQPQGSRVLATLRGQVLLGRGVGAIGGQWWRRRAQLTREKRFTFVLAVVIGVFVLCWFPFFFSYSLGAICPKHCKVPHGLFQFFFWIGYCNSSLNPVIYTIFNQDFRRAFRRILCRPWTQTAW
Method in brief: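 Membranes from CHO-K1 cells expressing the receptor, in 50 mM Tris-HCl pH 7.4 with 12.5 mM MgCl2, 1 mM EDTA, 0.2% BSA, incubated with compounds and 2.5 nM [3H]Rauwolscine for 60 minutes at 25 °C.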

[7] = percent inhibition of specific binding, screened at 1 μM, read-out: Inhibition of ligand binding, Hist. H2

T5 sequence (P28223 whole entry): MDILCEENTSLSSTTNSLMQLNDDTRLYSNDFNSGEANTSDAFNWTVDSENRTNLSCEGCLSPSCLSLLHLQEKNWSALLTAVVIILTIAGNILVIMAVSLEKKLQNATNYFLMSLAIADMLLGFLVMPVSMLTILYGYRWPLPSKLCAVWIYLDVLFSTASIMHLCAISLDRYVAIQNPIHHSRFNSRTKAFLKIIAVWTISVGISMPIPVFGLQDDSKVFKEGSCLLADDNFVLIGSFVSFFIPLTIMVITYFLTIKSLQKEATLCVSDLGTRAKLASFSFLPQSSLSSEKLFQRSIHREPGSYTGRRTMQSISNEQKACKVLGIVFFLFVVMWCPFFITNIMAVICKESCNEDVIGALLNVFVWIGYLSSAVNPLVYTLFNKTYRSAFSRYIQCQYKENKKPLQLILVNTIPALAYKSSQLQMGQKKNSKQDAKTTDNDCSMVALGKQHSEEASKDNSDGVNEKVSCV
T3 sequence (P50406 whole entry): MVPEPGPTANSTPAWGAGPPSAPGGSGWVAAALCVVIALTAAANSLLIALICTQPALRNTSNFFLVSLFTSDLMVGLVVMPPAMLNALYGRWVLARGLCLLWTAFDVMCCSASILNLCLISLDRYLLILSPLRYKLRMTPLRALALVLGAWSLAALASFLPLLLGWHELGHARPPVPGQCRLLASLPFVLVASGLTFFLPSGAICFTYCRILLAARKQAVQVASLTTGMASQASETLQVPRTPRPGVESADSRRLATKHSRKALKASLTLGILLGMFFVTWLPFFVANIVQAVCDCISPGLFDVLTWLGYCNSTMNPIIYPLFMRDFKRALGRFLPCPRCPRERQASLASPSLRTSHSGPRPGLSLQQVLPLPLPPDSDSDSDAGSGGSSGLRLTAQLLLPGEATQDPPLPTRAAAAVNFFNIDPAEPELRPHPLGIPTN
T4 sequence (P14416 whole entry): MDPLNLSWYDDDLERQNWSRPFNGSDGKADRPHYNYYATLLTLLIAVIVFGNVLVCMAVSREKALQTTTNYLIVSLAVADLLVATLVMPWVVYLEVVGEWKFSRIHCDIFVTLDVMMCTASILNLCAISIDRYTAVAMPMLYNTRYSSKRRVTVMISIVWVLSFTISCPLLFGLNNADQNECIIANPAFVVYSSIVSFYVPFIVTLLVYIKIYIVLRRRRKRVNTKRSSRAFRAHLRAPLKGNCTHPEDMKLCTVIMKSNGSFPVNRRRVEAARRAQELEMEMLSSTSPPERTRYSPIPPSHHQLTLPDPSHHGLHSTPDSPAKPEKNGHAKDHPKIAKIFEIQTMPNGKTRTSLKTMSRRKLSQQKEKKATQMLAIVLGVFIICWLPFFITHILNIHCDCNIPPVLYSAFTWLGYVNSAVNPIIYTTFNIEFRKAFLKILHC
T1 sequence (P25021 whole entry): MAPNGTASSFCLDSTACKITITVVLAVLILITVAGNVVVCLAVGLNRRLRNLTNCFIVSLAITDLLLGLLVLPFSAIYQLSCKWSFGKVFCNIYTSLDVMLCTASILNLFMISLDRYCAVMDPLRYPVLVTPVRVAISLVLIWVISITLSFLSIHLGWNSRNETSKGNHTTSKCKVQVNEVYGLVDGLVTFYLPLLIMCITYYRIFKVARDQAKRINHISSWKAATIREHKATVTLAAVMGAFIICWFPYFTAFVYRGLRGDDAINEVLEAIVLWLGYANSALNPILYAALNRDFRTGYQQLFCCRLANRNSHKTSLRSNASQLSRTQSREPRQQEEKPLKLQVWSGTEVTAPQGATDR

Compound: Cc1ccc(C(O)Cn2c3c(c4cc(C)ccc42)CN(C)CC3)cc1 (racemic) [Compound 28, racemic-2-(1,2,3,4-tetrahydro-2,8-dimethylpyrido[4,3-b]indol-5-yl)-1-p-tolylethanol]
- inhibition at 0.3 µM ([1]; 0.3 μM compound, 0.1 nM [125I]Aminopotentidine, read-out: Histamine Binding H2, percent inhibition of specific binding): 40%
- inhibition at 1 µM ([1]; 1 μM compound, 0.1 nM [125I]Aminopotentidine, read-out: Histamine Binding H2, percent inhibition of specific binding): 58%
- inhibition at 1 µM [1, 7]: 84%
- Inhibition of ligand binding, Ser. 5-HT2C [2]: 100%
- Inhibition of ligand binding, Ser. 5-HT6 [3]: 99%

Compound: CN1CCc2c(c3cc(Cl)ccc3n2CCc2cccnc2)C1 [Compound 55]
- Inhibition of ligand binding, Dop. D2L [4]: 29%
- inhibition at 1 µM [1, 7]: 62%
- Inhibition of ligand binding, Ser. 5-HT2C [2]: 87%
- Inhibition of ligand binding, Ser. 5-HT2A [5]: 86%
- Inhibition of ligand binding, Ser. 5-HT6 [3]: 94%
- Inhibition of ligand binding, Adren. alpha2B [6]: 90%

Compound: Cc1ccc2c(c1)c1c(n2CCc2cccnc2)CCN(C)C1 [Compound 60]
- Inhibition of ligand binding, Dop. D2L [4]: 24%
- inhibition at 1 µM [1, 7]: 56%
- Inhibition of ligand binding, Ser. 5-HT2C [2]: 90%
- Inhibition of ligand binding, Ser. 5-HT2A [5]: 84%
- Inhibition of ligand binding, Ser. 5-HT6 [3]: 91%
- Inhibition of ligand binding, Adren. alpha2B [6]: 95%

Compound: Cc1ccc2c(c1)c1c(n2CCc2cnccn2)CCN(C)C1 [Compound 62]
- Inhibition of ligand binding, Dop. D2L [4]: −3%
- inhibition at 1 µM [1, 7]: 15%
- Inhibition of ligand binding, Ser. 5-HT2C [2]: 88%
- Inhibition of ligand binding, Ser. 5-HT2A [5]: 85%
- Inhibition of ligand binding, Ser. 5-HT6 [3]: 83%
- Inhibition of ligand binding, Adren. alpha2B [6]: 90%

Compound: CN1CCc2c(c3cc(Cl)ccc3n2CCN2CCCCC2)C1 [Compound 189]
- Inhibition of ligand binding, Dop. D2L [4]: 0%
- inhibition at 1 µM [1, 7]: 87%
- Inhibition of ligand binding, Ser. 5-HT2C [2]: 85%
- Inhibition of ligand binding, Ser. 5-HT6 [3]: 66%
- Inhibition of ligand binding, Adren. alpha2B [6]: 72%

Compound: Cc1ccc(CCn2c3c(c4cc(Cl)ccc42)CN(C)CC3)cn1 [Compound 225, 8-chloro-2,3,4,5-tetrahydro-2-methyl-5-(2-(6-methylpyridin-3-yl)ethyl)-1H-pyrido[4,3-b]indole]
- Inhibition of ligand binding, Dop. D2L [4]: 32%
- inhibition at 1 µM ([1]; read-out: Inhibition of ligand binding, Hist. H2): 72%
- Inhibition of ligand binding, Ser. 5-HT2C [2]: 91%
- Inhibition of ligand binding, Ser. 5-HT2A [5]: 92%
- Inhibition of ligand binding, Ser. 5-HT6 [3]: 81%
- Inhibition of ligand binding, Adren. alpha2B [6]: 107%

Compound: CC(C)N1CCN(C(=O)Cn2c3c(c4cc(Cl)ccc42)CN(C)CC3)CC1 [Compound 248]
- Inhibition of ligand binding, Dop. D2L [4]: 2%
- inhibition at 1 µM [1, 7]: 7%
- Inhibition of ligand binding, Ser. 5-HT2C [2]: 59%
- Inhibition of ligand binding, Ser. 5-HT6 [3]: 67%
- Inhibition of ligand binding, Adren. alpha2B [6]: 75%

Compound: CN1CCc2c(c3cc(F)ccc3n2CCc2ccc(Cl)cc2)C1 [Compound 249]
- Inhibition of ligand binding, Dop. D2L [4]: 64%
- inhibition at 1 µM [1, 7]: 88%
- Inhibition of ligand binding, Ser. 5-HT2C [2]: 98%
- Inhibition of ligand binding, Ser. 5-HT6 [3]: 101%
- Inhibition of ligand binding, Adren. alpha2B [6]: 109%

Compound: Cc1ccc2c(c1)c1c(n2CC(=O)N2CCC(C)CC2)CCN(C)C1 [Compound 251]
- Inhibition of ligand binding, Dop. D2L [4]: −7%
- inhibition at 1 µM [1, 7]: 21%
- Inhibition of ligand binding, Ser. 5-HT2C [2]: 23%
- Inhibition of ligand binding, Ser. 5-HT6 [3]: 7%
- Inhibition of ligand binding, Adren. alpha2B [6]: 8%

Compound: Cc1ccc(CCn2c3c(c4cc(C(=O)O)ccc42)CN(C)CC3)cn1 [Compound 256, 2-Methyl-5-(2-(6-methylpyridin-3-yl)ethyl)-2,3,4,5-tetrahydro-1H-pyrido[4,3-b]indole-8-carboxylic acid]
- inhibition at […] ([1]; […] compound, 0.1 nM [125I]Aminopotentidine, read-out: Histamine Binding H2, percent inhibition of specific binding): -16%
- inhibition at 1 µM [1, 7]: -6%
- Inhibition of ligand binding, Ser. 5-HT2C [2]: 0%
- Inhibition of ligand binding, Ser. 5-HT2A [5]: 2%
- Inhibition of ligand binding, Ser. 5-HT6 [3]: 2%
- Inhibition of ligand binding, Adren. alpha2B [6]: 4%

Compound: Cc1ccc2c(c1)c1c(n2CC(=O)N2CCCC2)CCN(C)C1 [Compound 257, 2-(1,2,3,4-tetrahydro-2,8-dimethylpyrido[4,3-b]indol-5-yl)-1-(pyrrolidin-1-yl)ethanone]
- Inhibition of ligand binding, Dop. D2L [4]: −7%
- inhibition at 1 µM [1, 7]: 1%
- Inhibition of ligand binding, Ser. 5-HT2C [2]: 47%
- Inhibition of ligand binding, Ser. 5-HT6 [3]: 2%
- Inhibition of ligand binding, Adren. alpha2B [6]: 20%

Compound: Cc1ccc(CCn2c3c(c4cc(CO)ccc42)CN(C)CC3)cn1 [Compound 263]
- Inhibition of ligand binding, Dop. D2L [4]: −4%
- inhibition at 1 µM [1, 7]: 15%
- Inhibition of ligand binding, Ser. 5-HT2C [2]: 31%
- Inhibition of ligand binding, Ser. 5-HT2A [5]: 24%
- Inhibition of ligand binding, Ser. 5-HT6 [3]: 31%
- Inhibition of ligand binding, Adren. alpha2B [6]: 105%

Compound: CN1CCc2c(c3cc(Cl)cc(F)c3n2CCc2ccc(C(F)(F)F)nc2)C1 [Compound 338, 8-chloro-6-fluoro-5-(2-(6-(trifluoromethyl)pyridin-3-yl)ethyl)-2,3,4,5-tetrahydro-2-methyl-1H-pyrido[4,3-b]indole]
- Inhibition of ligand binding, Dop. D2L [4]: 22%
- inhibition at 1 µM [1, 7]: 78%
- Inhibition of ligand binding, Ser. 5-HT2C [2]: 68%
- Inhibition of ligand binding, Ser. 5-HT2A [5]: 94%
- Inhibition of ligand binding, Ser. 5-HT6 [3]: 66%
- Inhibition of ligand binding, Adren. alpha2B [6]: 104%

Compound: CN1CCc2c(c3cc(OC(F)(F)F)ccc3n2CCc2ccc(C(F)(F)F)nc2)C1 [Compound 341, 5-(2-(6-(trifluoromethyl)pyridin-3-yl)ethyl)-2,3,4,5-tetrahydro-2-methyl-8-(trifluoromethoxy)-1H-pyrido[4,3-b]indole]
- Inhibition of ligand binding, Dop. D2L [4]: 8%
- inhibition at 1 µM [1, 7]: 15%
- Inhibition of ligand binding, Ser. 5-HT2C [2]: 16%
- Inhibition of ligand binding, Ser. 5-HT2A [5]: 39%
- Inhibition of ligand binding, Ser. 5-HT6 [3]: 17%
- Inhibition of ligand binding, Adren. alpha2B [6]: −1%

Compound: CC(C)c1ccc2c(c1)c1c(n2CCc2ccc(C(F)(F)F)nc2)CCN(C)C1 [Compound 342, 8-Isopropyl-2-methyl-5-[2-(6-trifluoromethyl-pyridin-3-yl)-ethyl]-2,3,4,5-tetrahydro-1H-pyrido[4,3-b]indole]
- Inhibition of ligand binding, Dop. D2L [4]: 29%
- inhibition at 1 µM [1, 7]: 39%
- Inhibition of ligand binding, Ser. 5-HT2C [2]: 73%
- Inhibition of ligand binding, Ser. 5-HT2A [5]: 74%
- Inhibition of ligand binding, Ser. 5-HT6 [3]: 72%
- Inhibition of ligand binding, Adren. alpha2B [6]: 108%

Compound: CN1CCc2c(c3cc(Cl)c(F)cc3n2CCc2ccc(C(F)(F)F)nc2)C1 [Compound 343]
- Inhibition of ligand binding, Dop. D2L [4]: −7%
- inhibition at 1 µM [1, 7]: 29%
- Inhibition of ligand binding, Ser. 5-HT2C [2]: 69%
- Inhibition of ligand binding, Ser. 5-HT2A [5]: 89%
- Inhibition of ligand binding, Ser. 5-HT6 [3]: 57%
- Inhibition of ligand binding, Adren. alpha2B [6]: 117%

Compound: OC1CCC(N2CCc3c(c4cc(Cl)ccc4n3CCc3ccc(C(F)(F)F)nc3)C2)C1 (stereo not drawn) [Compound 351, 3-(8-chloro-5-(2-(6-(trifluoromethyl)pyridin-3-yl)ethyl)-3,4-dihydro-1H-pyrido[4,3-b]indol-2(5H)-yl)cyclopentanol]
- Inhibition of ligand binding, Dop. D2L [4]: 7%
- inhibition at 1 µM [1, 7]: -2%
- Inhibition of ligand binding, Ser. 5-HT2C [2]: 26%
- Inhibition of ligand binding, Ser. 5-HT2A [5]: 1%
- Inhibition of ligand binding, Ser. 5-HT6 [3]: −4%
- Inhibition of ligand binding, Adren. alpha2B [6]: 43%
